Test results: patent publication US11345659B2, “Pipecolic esters for inhibition of the proteasome” (THE BOARD OF REGENTS OF THE UNIVERSY OF TEXAS SYSTEM, priority 2018, dated 2022)
“Also recorded” adds a separate entry of the source.

What was measured:
[1] = target: 20 S proteasome and 19 S regulatory particle (Homo sapiens, UniProt P25787+P25789); experiment: In vitro reconstruction of 26 S: activation of 20 S core by 19 S regulatory particle; type: biochemical; conditions: pretreatment 10 minutes RT with 1 μM, 2:1 19 S:20 S, with ATP
Protocol: The 26 S proteasome can be reconstructed in vitro from the purified core (20 S) and regulatory particle (19 S) protein complexes. Activation of the core is considered a measure of effectiveness of the reconstruction. […] The reconstruction was carried out in the presence of ATP (1 mM ATP, 0.5 mM MgCl2, 0.5 mM dithiothreitol), as required for the optimal conditions of the 20 S-19 S binding. Averages and SD from three independent experiments are presented.

[2] = target: T1, mTOR (Homo sapiens, UniProt P42345+P62942); experiment: Western blot of S6 phosphorylation in RPMI 8226 cells; type: cell-based; conditions: RPMI 8226, 24 hours; rapamycin 2 nM, compound 3 and B1 0.2 μM
T1 construct: endogenous in cells; host or cells: RPMI 8226 (ATCC)
Protocol: Human multiple myeloma RPMI 8226 cells were purchased from American Type Culture Collection (ATCC; Manassas, Va.) and cultured according to ATCC specifications. […] The content of live cells was determined by excluding the Trypan Blue-stained cells. The cells were counted with TC20 Automated Cell Counter (Bio-Rad Laboratories, Hercules, Calif.) and EC50 was calculated with Origin Pro 2017 (OriginLab Corporation, Northampton, Mass.). When indicated, the cells were harvested, washed twice in PBS, resuspended in dilution buffer and stored in −80° C. To prepare crude lysates the thawed preparations were vortexed with glass beads and centrifuged for 5 min 5,000×g (4° C.). The supernate was centrifuged for 20 min 14,000×g. The resulting supernate was used as “crude lysate.” SDS-PAGE was carried in 12% acrylamide, Tris-glycine gels from Invitrogen. Chameleon Duo (Li-Cor) and Rainbow RPN800E (GE Healthcare) molecular weight standards were separated on each gel alongside lysates. The proteins were transferred to nitrocellulose membrane in a semi-dry system. The membranes were probed with specific primary antibodies from Life Technologies (S6, PS6) and Li-Cor (COX IV), and then with secondary antibodies from Li-Cor. In each experiment visualization of S6, PS6 and COX IV was performed on the same membrane with Odyssey Infrared Imaging System (Li-Cor). […]

[3] = target: T2, latent core 20 S proteasome (Homo sapiens, UniProt P25787+P25789); experiment: Competition of compound 3 with tRpt6 peptide, ChT-L activity of latent core; type: biochemical; conditions: 1 μM compound 3, 2 μM tRpt6
T2 construct: purified from erythrocytes; purchased Enzo Life Sciences, Inc. (Farmingdale, N.Y.); host or cells: human erythrocytes
From the text: According to the most recent model of the 26 S proteasome dynamic cycle, Rpt6 succeeds the Hb-Y—X containing anchor subunits Rpt5, Rpt3, and Rpt2 in docking into the α face pockets and promoting an intermediate conformation between latent and activated (open gate) proteasomes (Dong et al. ([…]) Nature 565(7737): 49-55). […] For comparison, no competition between tRpt5, expected to occupy the α5/α6 pocket, and compound 3 was detected.
Referring to FIG. 4, the C-terminal peptide derived from Rpt6 subunit compromises inhibition of the ChT-L activity of the latent core by the compound 3; however, only when added to the proteasome prior to the inhibitor. […] 1 μM compound 3 and 2 μM tRpt6 were tested. Mean±SD; n=3 to 6.

[4] = Pilot toxicity study in mice
Protocol: Six injections were performed on Mondays, Wednesdays, and Fridays for two weeks, and the weight and overall condition of the mice were monitored.

[5] = tested on: human cultured androgen-resistant prostate cancer PC3 cells; experiment: Scratch test with PC3 cells; type: cell-based; conditions: 1 μM, 24 hrs, 0.5 mm gap
Protocol: The “scratch test” was performed with human cultured androgen-resistant prostate cancer PC3 cells. The surface of growing confluent cells was scratched to produce a 0.5 mm wide gap. The scratch was photographed at time 0 hrs. and the cells were cultured with vehicle (DMSO; 1:1000) or with 1 μM of compound 3. After 24 hrs the scratch in control culture was almost entirely closed.

[6] = 10 and 30 mg/kg intravenously, six injections in two weeks

COc1cc(CCCOC(=O)[C@@H]2CCCCN2C(=O)OCc2ccccc2)cc(OC)c1OC [Compound 3, 1-benzyl 2-(3-(3,4,5-trimethoxyphenyl)propyl) (S)-piperidine-1,2-dicarboxylate]
activation of 20 S core by 19 S [1]: strongly attenuated the activation, by about two-thirds | activity of mTOR (phosphorylation of S6) [2]: neither B1 nor compound 3 affected the activity of mTOR; also recorded: did not inhibit the S6 phosphorylation | inhibition of ChT-L of the core when tRpt6 is added before the compound [3]: significantly attenuated inhibition of the core | inhibition of the core when the compound is preincubated before addition of tRpt6 [3]: No attenuation was observed | animals' behavior [4, 6]: No differences in the animals' behavior were noted | body weight versus control mice [4, 6]: did not differ significantly | toxicity for mice ([4]; highest tested dose 30 mg/kg): non-toxic for mice up to a highest tested dose of 30 mg/kg | closure of scratch (migration and proliferation) [5]: the scratch was still visible
